Test results from publication PMC3763859 (ACS medicinal chemistry letters, 2013).

Tested on: SK-BR-3 cells
Experiment: synergy studies with c-Src inhibitor 1 in SK-BR-3
Format: cell-based
Conditions: 2 μM 1, 10 nM panobinostat

With Cc1[nH]c2ccccc2c1CCNCc1ccc(/C=C/C(=O)NO)cc1 [panobinostat] the “synergy with c-Src inhibitor 1” value was “highly synergistic”.
